According to ChEMBL document CHEMBL4613287, “Glycomimetic Based Approach toward Selective Carbonic Anhydrase Inhibitors” (ACS Med Chem Lett, 2020):

Assays:
Carbonic anhydrase 9 = Carbonic anhydrase 9 (Homo sapiens, UniProt Q16790); assay: Inhibition of recombinant human carbonic anhydrase 9 preincubated with enzyme for 15 mins by phenol red dye based stopped flow CO2 hydration assay
Carbonic anhydrase 7 = Carbonic anhydrase 7 (Homo sapiens, UniProt P43166); assay: Inhibition of recombinant human carbonic anhydrase 7 preincubated with enzyme for 15 mins by phenol red dye based stopped flow CO2 hydration assay
Carbonic anhydrase 12 = Carbonic anhydrase 12 (Homo sapiens, UniProt O43570); assay: Inhibition of recombinant human carbonic anhydrase 12 preincubated with enzyme for 15 mins by phenol red dye based stopped flow CO2 hydration assay
Carbonic anhydrase 2 = Carbonic anhydrase 2 (Homo sapiens, UniProt P00918); assay: Inhibition of recombinant human carbonic anhydrase 2 preincubated with enzyme for 15 mins by phenol red dye based stopped flow CO2 hydration assay
Carbonic anhydrase 1 = Carbonic anhydrase 1 (Homo sapiens, UniProt P00915); assay: Inhibition of recombinant human carbonic anhydrase 1 preincubated with enzyme for 15 mins by phenol red dye based stopped flow CO2 hydration assay
Sequence of Carbonic anhydrase 1 (P00915 whole entry): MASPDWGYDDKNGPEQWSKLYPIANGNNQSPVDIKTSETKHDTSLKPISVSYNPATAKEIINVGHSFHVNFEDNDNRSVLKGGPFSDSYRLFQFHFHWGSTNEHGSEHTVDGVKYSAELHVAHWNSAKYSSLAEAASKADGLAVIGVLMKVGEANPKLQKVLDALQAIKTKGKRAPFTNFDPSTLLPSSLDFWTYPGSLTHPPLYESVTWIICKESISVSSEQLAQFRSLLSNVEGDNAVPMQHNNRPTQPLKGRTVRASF

Sequence of Carbonic anhydrase 12 (O43570 whole entry): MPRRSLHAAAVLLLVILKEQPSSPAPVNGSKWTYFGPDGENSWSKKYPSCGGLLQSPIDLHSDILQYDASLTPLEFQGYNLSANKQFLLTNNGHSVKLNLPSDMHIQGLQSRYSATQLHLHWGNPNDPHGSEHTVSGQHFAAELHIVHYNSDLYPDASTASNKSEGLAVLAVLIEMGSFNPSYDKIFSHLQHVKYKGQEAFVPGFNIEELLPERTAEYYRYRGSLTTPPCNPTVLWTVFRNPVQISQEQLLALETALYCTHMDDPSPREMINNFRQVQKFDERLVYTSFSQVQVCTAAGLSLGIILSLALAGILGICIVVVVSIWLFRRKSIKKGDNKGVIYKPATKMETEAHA
Sequence of Carbonic anhydrase 7 (P43166 whole entry): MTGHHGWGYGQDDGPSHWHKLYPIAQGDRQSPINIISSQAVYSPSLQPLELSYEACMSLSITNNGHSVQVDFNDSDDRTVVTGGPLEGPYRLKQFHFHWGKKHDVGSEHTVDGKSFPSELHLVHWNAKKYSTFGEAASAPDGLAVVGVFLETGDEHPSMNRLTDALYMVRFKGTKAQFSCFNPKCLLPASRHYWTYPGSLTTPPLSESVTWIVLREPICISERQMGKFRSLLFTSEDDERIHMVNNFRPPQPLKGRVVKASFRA

Row | Ki (Carbonic anhydrase 9) [nM] | Ki (Carbonic anhydrase 7) [nM] | Ki (Carbonic anhydrase 12) [nM] | Ki (Carbonic anhydrase 2) [nM] | Ki (Carbonic anhydrase 1) [nM] | SMILES
1 | 2980 | 7.4 | 541 | 80.3 | 2880 | CC1(C)O[C@H]2[C@H](O)CN(CCCCCCn3cc(CNc4ccc(S(N)(=O)=O)cc4)nn3)C[C@H]2O1
2 | 35.9 | 31.2 | 770 | 801 | 956 | CC1(C)O[C@H]2[C@H](O)[C@H]([C@H]3[C@H](O)[C@H]4OC[C@@H](O4)[C@H]3O)N(CCCCCCn3cc(CNc4ccc(S(N)(=O)=O)cc4)nn3)C[C@H]2O1
